Assays:
[1] = target: Misshapen-like kinase 1 (Homo sapiens) (UniProt Q8N4C8); settings: Compound concentration 1000.0 nM
[2] = target: Serine/threonine-protein kinase TBK1 (Homo sapiens) (UniProt Q9UHD2); settings: Compound concentration 1000.0 nM
[3] = target: Dual specificity mitogen-activated protein kinase kinase 4 (Homo sapiens) (UniProt P45985); settings: Compound concentration 1000.0 nM
[4] = target: Serine/threonine-protein kinase tousled-like 1 (Homo sapiens) (UniProt Q9UKI8); settings: Compound concentration 1000.0 nM
[5] = target: Serine/threonine-protein kinase D3 (Homo sapiens) (UniProt O94806); settings: Compound concentration 1000.0 nM
[6] = target: Aurora kinase A (Homo sapiens) (UniProt O14965); settings: Compound concentration 1000.0 nM
[7] = target: Mitogen-activated protein kinase 1 (Homo sapiens) (UniProt P28482); settings: Compound concentration 1000.0 nM
[8] = target: Serine/threonine-protein kinase OSR1 (Homo sapiens) (UniProt O95747); settings: Compound concentration 1000.0 nM
[9] = target: Leukocyte tyrosine kinase receptor (Homo sapiens) (UniProt P29376); settings: Compound concentration 1000.0 nM
[10] = target: Phosphorylase b kinase regulatory subunit alpha, liver isoform (Homo sapiens) (UniProt P46019); settings: Compound concentration 1000.0 nM
[11] = system: Epidermal growth factor receptor (Homo sapiens), P00533 [L858R,T790M]; settings: Compound concentration 1000.0 nM
[12] = target: Ephrin type-B receptor 4 (Homo sapiens) (UniProt P54760); settings: Compound concentration 1000.0 nM
[13] = system: Tyrosine-protein kinase ABL1 (Homo sapiens), P00519 [E255K]; settings: Compound concentration 1000.0 nM
[14] = target: Death-associated protein kinase 2 (Homo sapiens) (UniProt Q9UIK4); settings: Compound concentration 1000.0 nM
[15] = target: Inhibitor of nuclear factor kappa-B kinase subunit beta (Homo sapiens) (UniProt O14920); settings: Compound concentration 1000.0 nM
[16] = target: Bone morphogenetic protein receptor type-1B (Homo sapiens) (UniProt O00238); settings: Compound concentration 1000.0 nM
[17] = system: Phosphatidylinositol 4,5-bisphosphate 3-kinase catalytic subunit alpha isoform (Homo sapiens), P42336 [E545K]; settings: Compound concentration 1000.0 nM
[18] = target: Tyrosine-protein kinase receptor Tie-1 (Homo sapiens) (UniProt P35590); settings: Compound concentration 1000.0 nM
[19] = target: Myosin light chain kinase 2, skeletal/cardiac muscle (Homo sapiens) (UniProt Q9H1R3); settings: Compound concentration 1000.0 nM
[20] = target: Mitogen-activated protein kinase 12 (Homo sapiens) (UniProt P53778); settings: Compound concentration 1000.0 nM
[21] = target: Mitogen-activated protein kinase kinase kinase kinase 2 (Homo sapiens) (UniProt Q12851); settings: Compound concentration 1000.0 nM
[22] = target: RAC-gamma serine/threonine-protein kinase (Homo sapiens) (UniProt Q9Y243); settings: Compound concentration 1000.0 nM
[23] = target: LIM domain kinase 1 (Homo sapiens) (UniProt P53667); settings: Compound concentration 1000.0 nM
[24] = target: Mitogen-activated protein kinase kinase kinase 10 (Homo sapiens) (UniProt Q02779); settings: Compound concentration 1000.0 nM
[25] = target: Glycogen synthase kinase-3 beta (Homo sapiens) (UniProt P49841); settings: Compound concentration 1000.0 nM
[26] = system: Epidermal growth factor receptor (Homo sapiens), P00533 [UNDEFINED MUTATION]; settings: Compound concentration 1000.0 nM
[27] = target: Testis-specific serine/threonine-protein kinase 1 (Homo sapiens) (UniProt Q9BXA7); settings: Compound concentration 1000.0 nM
[28] = target: Epithelial discoidin domain-containing receptor 1 (Homo sapiens) (UniProt Q08345); settings: Compound concentration 1000.0 nM
[29] = target: Cyclin-dependent kinase-like 2 (Homo sapiens) (UniProt Q92772); settings: Compound concentration 1000.0 nM
[30] = target: Calcium/calmodulin-dependent protein kinase type IV (Homo sapiens) (UniProt Q16566); settings: Compound concentration 1000.0 nM
[31] = target: Serine/threonine-protein kinase B-raf (Homo sapiens) (UniProt P15056); settings: Compound concentration 1000.0 nM
[32] = target: Activin receptor type-1 (Homo sapiens) (UniProt Q04771); settings: Compound concentration 1000.0 nM
[33] = system: Epidermal growth factor receptor (Homo sapiens), P00533 [UNDEFINED MUTATION]; settings: Compound concentration 1000.0 nM; remark: listed apart in the source
[34] = target: Kappa-type opioid receptor (Homo sapiens) (UniProt P41145); settings: Compound concentration 10.0 uM
[35] = target: Receptor tyrosine-protein kinase erbB-4 (Homo sapiens) (UniProt Q15303); settings: Compound concentration 1000.0 nM
[36] = target: Serine/threonine-protein kinase haspin (Homo sapiens) (UniProt Q8TF76); settings: Compound concentration 1000.0 nM
[37] = target: Serine/threonine-protein kinase ULK1 (Homo sapiens) (UniProt O75385); settings: Compound concentration 1000.0 nM
[38] = target: Serine/threonine-protein kinase 35 (Homo sapiens) (UniProt Q8TDR2); settings: Compound concentration 1000.0 nM
[39] = system: Mast/stem cell growth factor receptor Kit (Homo sapiens), P10721 [A829P]; settings: Compound concentration 1000.0 nM
[40] = target: Cyclin-dependent kinase 11B (Homo sapiens) (UniProt P21127); settings: Compound concentration 1000.0 nM
[41] = target: Tyrosine-protein kinase receptor UFO (Homo sapiens) (UniProt P30530); settings: Compound concentration 1000.0 nM
[42] = target: Activated CDC42 kinase 1 (Homo sapiens) (UniProt Q07912); settings: Compound concentration 1000.0 nM
[43] = system: Proto-oncogene tyrosine-protein kinase receptor Ret (Homo sapiens), P07949 [V804M]; settings: Compound concentration 1000.0 nM
[44] = target: Testis-specific serine/threonine-protein kinase 3 (Homo sapiens) (UniProt Q96PN8); settings: Compound concentration 1000.0 nM
[45] = target: Serine/threonine-protein kinase pim-3 (Homo sapiens) (UniProt Q86V86); settings: Compound concentration 1000.0 nM

Sequence of Receptor tyrosine-protein kinase erbB-4 (Homo sapiens) (Q15303 whole entry): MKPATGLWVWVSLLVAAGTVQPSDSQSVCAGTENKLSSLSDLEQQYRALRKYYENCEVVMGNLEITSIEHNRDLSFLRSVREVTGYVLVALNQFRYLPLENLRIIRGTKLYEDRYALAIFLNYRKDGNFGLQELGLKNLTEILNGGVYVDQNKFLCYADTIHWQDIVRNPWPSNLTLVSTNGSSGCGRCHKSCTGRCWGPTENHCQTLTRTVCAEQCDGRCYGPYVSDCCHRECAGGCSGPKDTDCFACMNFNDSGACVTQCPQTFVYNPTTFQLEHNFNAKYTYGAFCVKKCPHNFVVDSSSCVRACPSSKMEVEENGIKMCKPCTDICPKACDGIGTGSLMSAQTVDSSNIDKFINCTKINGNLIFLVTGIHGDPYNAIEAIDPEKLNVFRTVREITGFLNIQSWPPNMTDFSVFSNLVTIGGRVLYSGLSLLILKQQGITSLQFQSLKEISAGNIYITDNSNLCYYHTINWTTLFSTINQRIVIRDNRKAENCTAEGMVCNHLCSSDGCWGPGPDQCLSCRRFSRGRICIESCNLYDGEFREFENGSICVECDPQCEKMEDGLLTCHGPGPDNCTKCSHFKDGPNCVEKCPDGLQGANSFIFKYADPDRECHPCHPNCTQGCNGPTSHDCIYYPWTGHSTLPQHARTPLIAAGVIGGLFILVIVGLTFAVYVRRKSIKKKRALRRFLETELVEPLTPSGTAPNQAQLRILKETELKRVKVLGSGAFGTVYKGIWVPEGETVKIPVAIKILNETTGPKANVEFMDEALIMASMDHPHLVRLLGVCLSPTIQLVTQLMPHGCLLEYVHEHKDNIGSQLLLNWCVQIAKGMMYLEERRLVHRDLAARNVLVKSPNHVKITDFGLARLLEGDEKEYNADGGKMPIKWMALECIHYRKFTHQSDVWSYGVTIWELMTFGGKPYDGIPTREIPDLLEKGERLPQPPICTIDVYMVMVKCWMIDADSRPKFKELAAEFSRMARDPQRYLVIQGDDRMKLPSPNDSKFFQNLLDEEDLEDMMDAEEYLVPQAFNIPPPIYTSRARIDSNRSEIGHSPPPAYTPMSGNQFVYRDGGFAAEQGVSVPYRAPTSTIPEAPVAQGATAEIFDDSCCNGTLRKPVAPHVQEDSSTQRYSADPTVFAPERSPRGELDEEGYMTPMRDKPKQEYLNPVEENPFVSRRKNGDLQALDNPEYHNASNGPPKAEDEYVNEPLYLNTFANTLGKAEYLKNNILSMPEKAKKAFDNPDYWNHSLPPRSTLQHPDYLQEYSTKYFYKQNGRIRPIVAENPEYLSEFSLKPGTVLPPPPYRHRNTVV
Sequence of Mitogen-activated protein kinase kinase kinase kinase 2 (Homo sapiens) (Q12851 whole entry): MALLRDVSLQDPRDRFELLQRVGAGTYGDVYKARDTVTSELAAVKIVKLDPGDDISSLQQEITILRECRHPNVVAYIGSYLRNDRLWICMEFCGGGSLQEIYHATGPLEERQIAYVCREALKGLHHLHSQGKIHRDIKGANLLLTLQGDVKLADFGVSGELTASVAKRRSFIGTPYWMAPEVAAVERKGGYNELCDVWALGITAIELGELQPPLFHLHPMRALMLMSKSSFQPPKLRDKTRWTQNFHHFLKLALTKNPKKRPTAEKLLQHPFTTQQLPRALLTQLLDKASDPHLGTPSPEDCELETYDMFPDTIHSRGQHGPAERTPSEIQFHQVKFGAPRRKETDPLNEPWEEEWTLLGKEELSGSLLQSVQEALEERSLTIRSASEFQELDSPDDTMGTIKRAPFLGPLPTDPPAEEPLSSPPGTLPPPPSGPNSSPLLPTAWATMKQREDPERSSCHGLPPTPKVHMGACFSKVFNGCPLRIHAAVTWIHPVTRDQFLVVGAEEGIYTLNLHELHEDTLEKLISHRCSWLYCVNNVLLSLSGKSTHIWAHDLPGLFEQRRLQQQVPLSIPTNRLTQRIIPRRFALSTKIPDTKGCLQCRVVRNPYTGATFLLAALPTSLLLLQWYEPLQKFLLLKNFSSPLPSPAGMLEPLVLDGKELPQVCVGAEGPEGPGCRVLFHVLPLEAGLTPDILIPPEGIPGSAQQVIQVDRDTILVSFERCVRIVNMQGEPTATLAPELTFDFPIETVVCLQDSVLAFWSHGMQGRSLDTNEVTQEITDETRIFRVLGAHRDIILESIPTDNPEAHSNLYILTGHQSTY
Sequence of Tyrosine-protein kinase receptor UFO (Homo sapiens) (P30530 whole entry): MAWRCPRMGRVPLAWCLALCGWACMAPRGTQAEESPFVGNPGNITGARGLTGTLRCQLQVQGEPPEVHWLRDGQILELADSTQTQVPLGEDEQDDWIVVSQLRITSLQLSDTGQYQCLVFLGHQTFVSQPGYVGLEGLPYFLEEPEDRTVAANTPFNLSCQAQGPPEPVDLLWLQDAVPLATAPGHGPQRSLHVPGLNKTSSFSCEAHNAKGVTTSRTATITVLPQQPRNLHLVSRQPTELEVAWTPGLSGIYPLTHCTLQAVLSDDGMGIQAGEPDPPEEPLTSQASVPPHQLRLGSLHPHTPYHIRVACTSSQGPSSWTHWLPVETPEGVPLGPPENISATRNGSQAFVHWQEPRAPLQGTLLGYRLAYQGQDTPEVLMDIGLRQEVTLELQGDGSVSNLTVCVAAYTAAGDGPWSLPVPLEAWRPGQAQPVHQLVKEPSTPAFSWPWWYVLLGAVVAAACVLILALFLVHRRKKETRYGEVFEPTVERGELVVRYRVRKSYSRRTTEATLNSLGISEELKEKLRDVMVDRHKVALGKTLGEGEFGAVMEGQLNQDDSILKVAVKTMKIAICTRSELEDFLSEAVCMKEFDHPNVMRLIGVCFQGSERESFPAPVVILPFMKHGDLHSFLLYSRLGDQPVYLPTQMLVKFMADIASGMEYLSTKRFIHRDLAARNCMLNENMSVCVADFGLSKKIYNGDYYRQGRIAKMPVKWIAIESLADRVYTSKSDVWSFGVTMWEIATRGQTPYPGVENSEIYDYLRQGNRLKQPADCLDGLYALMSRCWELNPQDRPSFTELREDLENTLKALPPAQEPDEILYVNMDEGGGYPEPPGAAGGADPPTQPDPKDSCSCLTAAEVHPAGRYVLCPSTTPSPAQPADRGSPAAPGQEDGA
Sequence of RAC-gamma serine/threonine-protein kinase (Homo sapiens) (Q9Y243 whole entry, the tested form may be a part): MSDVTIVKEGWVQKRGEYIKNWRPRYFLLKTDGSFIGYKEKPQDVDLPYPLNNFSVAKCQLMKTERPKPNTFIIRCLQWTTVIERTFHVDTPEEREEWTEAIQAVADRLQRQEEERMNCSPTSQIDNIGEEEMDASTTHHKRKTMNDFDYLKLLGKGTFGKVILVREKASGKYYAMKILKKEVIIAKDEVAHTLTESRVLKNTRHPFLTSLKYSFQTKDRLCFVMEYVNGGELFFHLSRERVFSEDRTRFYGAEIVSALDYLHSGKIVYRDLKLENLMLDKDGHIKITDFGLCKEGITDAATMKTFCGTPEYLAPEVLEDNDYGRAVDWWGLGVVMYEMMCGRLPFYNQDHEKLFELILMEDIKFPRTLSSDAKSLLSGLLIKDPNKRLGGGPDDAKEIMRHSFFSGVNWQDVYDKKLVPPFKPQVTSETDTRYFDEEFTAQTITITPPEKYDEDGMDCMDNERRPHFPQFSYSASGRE
Sequence of Activated CDC42 kinase 1 (Homo sapiens) (Q07912 whole entry, looked up): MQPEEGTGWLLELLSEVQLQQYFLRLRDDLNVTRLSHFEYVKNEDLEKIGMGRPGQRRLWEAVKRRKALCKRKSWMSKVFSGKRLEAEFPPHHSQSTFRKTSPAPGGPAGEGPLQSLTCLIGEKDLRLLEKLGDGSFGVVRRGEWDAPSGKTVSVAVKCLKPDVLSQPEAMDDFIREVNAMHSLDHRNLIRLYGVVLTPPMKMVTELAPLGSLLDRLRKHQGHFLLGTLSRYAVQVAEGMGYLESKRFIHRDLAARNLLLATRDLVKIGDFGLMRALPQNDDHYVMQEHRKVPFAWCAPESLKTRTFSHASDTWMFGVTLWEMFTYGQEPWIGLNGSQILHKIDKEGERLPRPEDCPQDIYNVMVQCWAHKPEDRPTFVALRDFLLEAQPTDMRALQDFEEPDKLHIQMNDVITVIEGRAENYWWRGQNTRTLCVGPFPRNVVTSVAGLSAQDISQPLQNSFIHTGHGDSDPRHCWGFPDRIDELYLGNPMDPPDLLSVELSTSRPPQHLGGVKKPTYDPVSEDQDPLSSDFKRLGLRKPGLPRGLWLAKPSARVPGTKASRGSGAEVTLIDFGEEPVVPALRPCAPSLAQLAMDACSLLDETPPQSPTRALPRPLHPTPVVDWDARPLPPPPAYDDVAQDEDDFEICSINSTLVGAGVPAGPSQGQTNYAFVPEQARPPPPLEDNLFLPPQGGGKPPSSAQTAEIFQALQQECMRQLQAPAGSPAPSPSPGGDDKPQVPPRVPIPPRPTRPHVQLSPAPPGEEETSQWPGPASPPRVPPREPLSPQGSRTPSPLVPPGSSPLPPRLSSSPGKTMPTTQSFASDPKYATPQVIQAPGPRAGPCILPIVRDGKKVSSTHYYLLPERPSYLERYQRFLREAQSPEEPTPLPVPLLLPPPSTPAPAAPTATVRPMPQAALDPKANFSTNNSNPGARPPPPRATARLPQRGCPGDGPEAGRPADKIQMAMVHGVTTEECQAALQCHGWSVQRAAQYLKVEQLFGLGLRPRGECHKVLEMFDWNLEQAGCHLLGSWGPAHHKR
Sequence of Mitogen-activated protein kinase 1 (Homo sapiens) (P28482 whole entry): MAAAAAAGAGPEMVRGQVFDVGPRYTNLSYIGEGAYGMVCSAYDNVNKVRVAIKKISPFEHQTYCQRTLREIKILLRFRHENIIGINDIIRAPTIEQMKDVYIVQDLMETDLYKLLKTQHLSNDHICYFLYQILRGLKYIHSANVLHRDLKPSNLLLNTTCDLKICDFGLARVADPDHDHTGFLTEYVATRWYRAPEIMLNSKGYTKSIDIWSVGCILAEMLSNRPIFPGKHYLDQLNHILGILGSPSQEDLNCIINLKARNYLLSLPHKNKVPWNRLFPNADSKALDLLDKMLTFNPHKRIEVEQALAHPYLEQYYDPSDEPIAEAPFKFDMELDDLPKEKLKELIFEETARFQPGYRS

Molecule `CO[C@@H](C)c1c(Nc2ccc([C@@H](N(C)C(=O)C3CCS(=O)(=O)CC3)C(F)(F)F)cc2)cnc2cc(Cl)nn12` [NVS-MALT1-C] has a residual activity [1] of 100%, a residual activity [2] of 77% and a residual activity [3] of 100%. For the same molecule, the residual activity [4] was 100%, the residual activity [5] was 93% and the residual activity [6] was 100%. The residual activity [7] was 100%, the residual activity [8] was 100% and the residual activity [9] was 95%. It also gave a residual activity [10] of 44%, a residual activity [11] of 72% and a residual activity [12] of 100%. The residual activity [13] was 75%, the residual activity [14] was 41% and the residual activity [15] was 100%. The residual activity [16] was 100%, the residual activity [17] was 62% and the residual activity [18] was 96%. It also gave a residual activity [19] of 88%, a residual activity [20] of 92% and a residual activity [21] of 100%. It also gave a residual activity [22] of 65%, a residual activity [23] of 92% and a residual activity [24] of 77%. For the same molecule, the residual activity [25] was 100%, the residual activity [26] was 90% and the residual activity [27] was 100%. For the same molecule, the residual activity [28] was 100%, the residual activity [29] was 88% and the residual activity [30] was 100%. It also gave a residual activity [31] of 76%, a residual activity [32] of 85% and a residual activity [33] of 93%. The inhibition [34] was 29.4%, the residual activity [35] was 77% and the residual activity [36] was 100%. It also gave a residual activity [37] of 100%, a residual activity [38] of 90% and a residual activity [39] of 100%. It also gave a residual activity [40] of 100%, a residual activity [41] of 77% and a residual activity [42] of 84%. The residual activity [43] was 87%, the residual activity [44] was 79% and the residual activity [45] was 97%.
`CO[C@@H](C)c1c(Nc2ccc([C@H](N(C)C(=O)C3CCS(=O)(=O)CC3)C(F)(F)F)cc2)cnc2cc(Cl)nn12` [NVS-MALT1] was tested, and the residual activity [1] was 100%, the residual activity [2] was 59% and the residual activity [3] was 100%. The residual activity [4] was 100%, the residual activity [5] was 85% and the residual activity [6] was 100%. It also gave a residual activity [7] of 100%, a residual activity [8] of 100% and a residual activity [9] of 98%. The residual activity [10] was 96%, the residual activity [11] was 80% and the residual activity [12] was 100%. The residual activity [13] was 76%, the residual activity [14] was 86% and the residual activity [15] was 100%. It also gave a residual activity [16] of 100%, a residual activity [17] of 48% and a residual activity [18] of 92%. It also gave a residual activity [19] of 83%, a residual activity [20] of 98% and a residual activity [21] of 100%. It also gave a residual activity [22] of 100%, a residual activity [23] of 100% and a residual activity [24] of 71%. The residual activity [25] was 100%, the residual activity [26] was 100% and the residual activity [27] was 100%. It also gave a residual activity [28] of 99%, a residual activity [29] of 90% and a residual activity [30] of 100%. For the same molecule, the residual activity [31] was 85%, the residual activity [32] was 94% and the residual activity [33] was 100%. It also gave an inhibition [34] of 31.9%, a residual activity [35] of 84% and a residual activity [36] of 100%. The residual activity [37] was 100%, the residual activity [38] was 80% and the residual activity [39] was 100%. For the same molecule, the residual activity [40] was 88%, the residual activity [41] was 76% and the residual activity [42] was 100%. It also gave a residual activity [43] of 94%, a residual activity [44] of 81% and a residual activity [45] of 86%.
